Columns and labels:
[1] = biological target: T1, human TRPV1 (Homo sapiens (Human), UniProt Q8NER1); assay: Capsaicin-based assay, Protocol 2 (hCAP-CHO); assay type: cell-based
Procedure: (§1) For Protocol 2, a Chinese Hamster Ovary cell line (CHO) that has been engineered to constitutively express human recombinant TRPV1 was used (TRPV1/CHO cells). The TRPV1/CHO cell line was generated as described below.
One day prior to assay, TRPV1/CHO cells were seeded in 96-well clear-bottom black plates (20,000 cells/well) in growth media. On the day of the experiment, the cells were washed with 0.2 mL 1× Hank's Balanced Salt Solution (Life Technologies) containing 1.6 mM CaCl2 and 20 mM HEPES, pH 7.4 (“wash buffer”). Subsequently, the cells were loaded by incubation in 0.1 mL of wash buffer containing Fluo-4 at 3 μM final concentration. After 1 hour, the cells were washed twice with 0.2 mL wash buffer and resuspended in 0.1 mL wash buffer. The plates were then transferred to a Fluorescence Imaging Plate Reader (Molecular Devices). Fluorescence intensity was monitored for 15 seconds to establish a baseline. Subsequently, test compounds diluted in assay buffer (lx Hank's Balanced Salt Solution containing 1 mM CaCl2 and 20 mM HEPES, pH 7.4) containing 1% DMSO were added to the cell plate and fluorescence was monitored for 2 minutes. […] Human TRPV1 was then activated by the addition of 50 μL capsaicin (100 nM final concentration) and plates incubated for an additional 3 min. Data were collected over the entire time course and analyzed using Excel and the curve-fitting formula GraphPad Prism.
(§2) The IC50 data provided in Table 10 are shown as mean±standard error of the mean; the number of trials conducted for each assay is shown in parentheses except for only a single trial where no number of trials is shown in parentheses.

[2] = biological target: T1, human TRPV1; assay: pH-based assay, Protocol 2 (hpH-CHO); assay type: cell-based; conditions: read-out: TRPV1 IC50 Potency, Human pH CHO (hpH-CHO)
Procedure: as §1
TRPV1/CHO cells were seeded in the 96-well clear-bottom black-wall plate (Nunc) at densities of 1-2×10^4 cells/well and grown in 100 μL of culture medium (alpha-MEM supplemented with 10% FBS, 20 mM HEPES, 1 mg/mL geneticin and 1% antibiotic-antimycotic mixed stock solution) for 1-2 days before the experiment.
For the first half of a 96-well plate one agonist solution was used; for the second half the other agonist solution was used. The agonist solutions were obtained by diluting sulfuric acid (1M H2SO4) with measuring buffer. The concentrations for the two agonist solutions were determined as described above in Section 2 of Protocol 2.
The sulfuric acid concentrations between the two agonist solutions differed by 0.5 mM. […] After 1:4 dilution of the agonist solutions, the final sulfuric acid concentration was 3.2 mM and 3.3 mM, respectively. The resulting pH value for the pH assay was 5.0 to 5.1.
Test compounds were dissolved in DMSO to yield 1 mM stock solutions. […] The thereby-obtained solutions were further diluted in measuring buffer (1:100) as 10× stock serial dilutions with a DMSO concentration of 1%. 10 μL of a 10× stock was added into each well of an “antagonist plate” (see step 3.3.(4) below).
Steps (1) and (2) of this Assay were the same as steps 2.2.(1) and 2.2.(2), respectively, of Protocol 2.
(3) The cells were washed twice with 150 μL of measuring buffer (mentioned in step 2.2.(3) of Protocol 2, no probenecid). The wells were subsequently refilled with 70 μL of measuring buffer.
(4) Either 10 μL of measuring buffer or 10 μL of 10× stock serial dilution of test compound (described in step 3.2. above) were applied to each well. Usually, only one test compound was tested per 96-well plate. The number of replicates per 96-well plate for a particular antagonist at a particular concentration was 2×7 since, as described for the “agonist plate,” two different sulfuric acid concentrations were used per 96-well plate and seven lanes (A-C, E-H) per 96-well plate were used (N=2×7).
(6) Fura-2 fluorescent intensity was monitored as described in step 2.2.(5) above. After 16 time points of baseline detection, 20 μL of agonist solution (measuring buffer titrated with H2SO4 to yield a pH in the range of from about 5.0 to about 5.1 when mixed 1:4 with the measuring buffer containing test compound) was added to each well (final volume 100 μL/well).
Steps (7) and (8) were as described in steps 2.2.(6) and 2.2.(7) above, respectively.
as §2

[3] = biological target: T1, human TRPV1; assay: Human TRPV1 heat-based assay (hHeat-CHO); assay type: cell-based; conditions: hTRPV1/CHO cells, temperature ramp 25° C. to 45° C.; mean ± SEM (number of trials); read-out: TRPV1 IC50 Potency, Human Heat CHO (hHeat-CHO)
Procedure: Human TRPV1 Heat-Based Assay:
CHO cells stably expressing human TRPV1 (hTRPV1) were used. Functional assessment of heat-induced activation of hTRPV1 was carried out in a cell-based Ca^2+ flux assay using ABI7500 Fast Real-Time PCR System as described in Reubish et al., “Functional assessment of temperature-gated ion-channel activity using a real-time PCR machine,” www.BioTechniques.com 47(3):iii-ix (2009), which is hereby incorporated by reference. Briefly, hTRPV1/CHO cells were cultured in growth media in a tissue culture dish at 37° C. in a CO2 incubator. On the day of the assay, culture media were removed and the cells were then detached using 0.05% trypsin at 37° C. with 5% CO2, for 90 s. The detached cells were centrifuged (1000 rpm, 4 min) to remove trypsin-containing supernatant and resuspended in assay buffer (115 mM NaCl, 5.4 mM KCl, 0.8 mM MgCl2.6H2O, 1.8 mM CaCl2.2H2O, 13.8 mM D-glucose, and 20 mM HEPES). Then, the cells were loaded with 5 μM Fluo-4, a Ca^2+ reporter dye, in the presence of 2.5 mM probenecid at 37° C. with 5% CO2, for 45 min. Thereafter, the cells were washed twice with measuring buffer (assay buffer supplemented with 0.1% BSA and 3.2 mM CaCl2) then transferred to a Fast 96-well Reaction Plate (0.1 mL) (Part no. 4346907, MICROAMP, Applied Biosystems, Foster City, Calif.). The cell density was 100,000 cells/24 μL/well. A solution of the compound under test (6 μL/well) was added into each well of the 96-well plate. Thus, the reaction volume per well was 30 μL.
The plates were then placed inside an ABI7500 Fast Real-Time PCR instrument (Applied Biosystems) to read fluorescence at different temperatures using 7500 software, version 2.0.2 (Applied Biosystems). The initial temperature was set at 25° C. for 1 min. followed by a temperature ramp to 45° C. in 100 s to deliver heat to cells. [Ca^2+]i response of hTRPV1/CHO cells to heat was determined as: [fluorescence read at 45° C.−fluorescence read at 25° C.].
Compound concentration response curves and IC50 values were analyzed using GraphPad Prism 4 software (GraphPad Software, La Jolla, Calif.).
as §2

[4] = In vivo assay of body temperature increase; parameters: species or system rat; conditions: rats, oral, 1 mg/mL at 10 mL/kg once; greatest ΔTb versus control at 0.5, 1 or 2 hrs after administration; rectal temperature
Excerpt: Selection of rats (Crl/SD rats, 7 weeks, male) was based on rectal body temperature measured during the morning of the day of dosing as described below. In addition, to minimize spontaneous, stress-induced increases in body temperature, rats were acclimated in advance to both the rectal measurement procedure and to being handled and dosed. All lodging and testing took place in animal care laboratories with constant room temperature and humidity. The rats were free to move and ingest food and water throughout. Each rat was coded with a colored line on the tail, housed in a separate cage, and permitted the normal range of movement. Immediately before each body temperature measurement, a rat was transferred to a measurement cage. To reduce stress which could influence its body temperature, each rat was covered with towels during the measurement. A thermistor probe was then carefully inserted into the rectum of each rat and left in place until the temperature reading on the digital display had stabilized; this value was recorded.
On the day before dosing, rectal body temperature was measured at 9:00, 10:00, 11:00, 12:30, 13:30, 14:30, and 15:30 o'clock to familiarize the rats with the measurement procedure prior to administration of the test or control treatments. The rats were also dosed by oral gavage without vehicle at 12:30 o'clock to acclimate and familiarize them with the handling and dosing procedure.
On the day of dosing, only rats with rectal body temperatures within the range of from 37.0° C. to 37.7° C. were selected for study. Rectal body temperatures were measured at 9:00, 10:00, and 11:00 o'clock. […] Rectal body temperatures of the selected rats were measured again at 12:30 o'clock and any rat with a rectal body temperature of 38.0° C. or greater was also excluded from the study.
Following assignment to either a test or control group, a test compound or a control was administered to the rats. […] Rectal body temperatures were measured at the following time points: 0.5, 1, and 2 hrs after administration. […]

[5] = prepared and evaluated according to the methods described in WO2005/030766
[6] = TRPV1/CHO cells, 100 nM capsaicin, mean ± SEM (number of trials), read-out: TRPV1 IC50 Potency, Human Capsaicin CHO (hCAP-CHO)
[7] = TRPV1/CHO cells, pH 5.0-5.1, mean ± SEM (number of trials)

T1 sequence (Q8NER1 whole entry, looked up): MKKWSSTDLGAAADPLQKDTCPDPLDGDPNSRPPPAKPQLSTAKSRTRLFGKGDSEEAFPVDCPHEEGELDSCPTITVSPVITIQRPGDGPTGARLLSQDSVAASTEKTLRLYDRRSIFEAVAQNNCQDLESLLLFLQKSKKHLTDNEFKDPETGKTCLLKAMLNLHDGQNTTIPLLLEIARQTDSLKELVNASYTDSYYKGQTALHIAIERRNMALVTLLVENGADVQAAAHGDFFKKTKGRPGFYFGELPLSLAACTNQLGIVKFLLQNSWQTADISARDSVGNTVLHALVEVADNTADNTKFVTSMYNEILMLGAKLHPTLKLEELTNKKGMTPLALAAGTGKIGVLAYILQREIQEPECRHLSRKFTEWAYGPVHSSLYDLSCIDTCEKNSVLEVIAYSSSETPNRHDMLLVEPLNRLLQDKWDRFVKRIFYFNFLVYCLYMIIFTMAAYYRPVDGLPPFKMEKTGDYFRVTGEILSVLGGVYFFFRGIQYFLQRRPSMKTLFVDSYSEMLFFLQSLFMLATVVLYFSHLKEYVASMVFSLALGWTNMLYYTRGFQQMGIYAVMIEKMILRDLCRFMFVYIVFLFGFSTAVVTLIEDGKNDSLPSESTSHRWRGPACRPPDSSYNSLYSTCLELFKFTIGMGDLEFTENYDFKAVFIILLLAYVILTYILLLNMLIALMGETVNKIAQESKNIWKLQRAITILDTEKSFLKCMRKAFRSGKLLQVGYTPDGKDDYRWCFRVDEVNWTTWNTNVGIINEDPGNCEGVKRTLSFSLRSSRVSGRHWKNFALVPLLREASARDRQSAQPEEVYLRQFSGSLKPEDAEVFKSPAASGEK

## Cc1cccnc1-c1ccc(C(=O)Nc2nc3ccc(F)cc3s2)cc1 [Compound B, reference compound]
[1]
  IC50: 1140 ± 270 nM
[2]; [5]
  IC50: > 25000 nM

## O=C(Nc1nc2ccccc2s1)c1ccc(-c2ncc(C[C@H](O)CO)cc2F)cc1 [Compound G155b, (S)—N-(benzo[d]thiazol-2-yl)-4-[5-(2,3-dihydroxypropyl)-3-fluoropyridin-2-yl]benzamide]
[1]; [6]
  IC50: 116 ± 9.6 nM
[2]; [7]
  IC50: 45 ± 3.3 nM
[3]
  IC50: 580 nM

## C[C@H](O)[C@@H](O)c1cnc(N2CCN(C(=O)Nc3nc4ccc(F)cc4s3)[C@H](C)C2)c(Cl)c1 [BA]
[4]
  Body Temperature Increase ΔTb: 0.9 °C

## C[C@H](O)[C@@H](O)c1cnc(N2CCN(C(=O)Nc3nc4ccc(F)cc4s3)[C@H](C)C2)c(F)c1 [BC]
[4]
  Body Temperature Increase ΔTb: 0.7 °C

## O=C(Nc1nc2ccc(Cl)cc2s1)c1ccc(-c2ncc(C[C@@H](O)CO)cc2F)cc1 [Compound G156a, (R)—N-(6-chlorobenzo[d]thiazol-2-yl)-4-[5-(2,3-dihydroxypropyl)-3-fluoropyridin-2-yl]benzamide]
[1]; [6]
  IC50: 28.7 ± 6.8 nM
[2]; [7]
  IC50: 18.8 ± 1.8 nM
[3]
  IC50: > 10000 nM

## Cc1ccc2nc(NC(=O)c3ccc(-c4ncc(C[C@@H](O)CO)cc4F)cc3)sc2c1 [Compound G159a, (R)-4-[5-(2,3-dihydroxypropyl)-3-fluoropyridin-2-yl]-N-(6-methylbenzo[d]thiazol-2-yl)benzamide]
[1]; [6]
  IC50: 29.6 ± 7.9 nM
[2]; [7]
  IC50: 13.7 ± 0.2 nM
[3]
  IC50: 879 ± 13 nM

## Cc1cc2nc(NC(=O)c3ccc(-c4ncc(C[C@@H](O)CO)cc4F)cc3)sc2cc1C [Compound G215a, (R)-4-[5-(2,3-dihydroxypropyl)-3-fluoropyridin-2-yl]-N-(5,6-dimethylbenzo[d]thiazol-2-yl)benzamide]
[1]; [6]
  IC50: 219 ± 58 nM
[2]; [7]
  IC50: 105 ± 14 nM

## O=C(Nc1nc2ccccc2s1)c1ccc(-c2ncc(C[C@@H](O)CO)cc2F)cc1 [Compound G155a, (R)—N-(benzo[d]thiazol-2-yl)-4-[5-(2,3-dihydroxypropyl)-3-fluoropyridin-2-yl]benzamide]
[1]; [6]
  IC50: 31.9 ± 7.6 nM
[2]; [7]
  IC50: 44.3 ± 6.2 nM
[3]
  IC50: 307 ± 10 nM

## C[C@H](O)[C@@H](O)c1cnc(N2CCN(C(=O)Nc3nc4ccc(F)cc4s3)[C@@H](C)C2)c(F)c1 [BB]
[4]
  Body Temperature Increase ΔTb: 0.5 °C

## O=C(Nc1nc2ccc(F)cc2s1)c1ccc(-c2ncc(C[C@@H](O)CO)cc2F)cc1 [Compound G158a, (R)-4-[5-(2,3-dihydroxypropyl)-3-fluoropyridin-2-yl]-N-(6-fluorobenzo[d]thiazol-2-yl)benzamide]
[1]; [6]
  IC50: 77 ± 29 nM
[2]; [7]
  IC50: 23.1 ± 3.1 nM
[3]
  IC50: 598 ± 296 nM

## Cc1cccnc1-c1ccc(C(=O)Nc2nc3ccc(Cl)cc3s2)cc1 [A, reference compound]
[1]
  IC50: > 25000 nM
[2]; [5]
  IC50: > 25000 nM

— patent US9394293B2, “TRPV1 antagonists including dihydroxy substituent and uses thereof” (Purdue Pharma L.P., priority 2011, dated 2016)
